Key:
[1] = target: T1, human neutrophil-derived MMP-9 trimers (Homo sapiens, UniProt P14780); experiment: Gelatin degradation assay, neutrophil-derived MMP-9 trimers; format: biochemical; conditions: for IC25 / IC50 / IC75: MMP-9 isolated from human neutrophils, tri, gelatin degradation
T1 construct: purchased Sigma-Aldrich 444232; host or cells: human neutrophils (natural protein)
Description: Compounds 5 and 7 were synthesized as previously reported. Full-length human proMMP-9 was produced by recombinant expression in Sf9 insect cells and purified by gelatin-Sepharose chromatography as previously described. Stable full-length proMMP-9 monomers and trimers were separated by glycerol gradient ultracentrifugation as previously described. ProMMP-9 mixture and the separated monomers and trimers were activated by incubation with the catalytic domain of MMP-3 (cat. No. 444217, Merck Millipore, Darmstadt, Germany) as previously described. Activation of proMMP-9 was confirmed by a band shift of ±10 kDa, corresponding to the removal of the auto-inhibitory propeptide domain and by detection of gelatinolytic activity with a previously described gelatin degradation assay. MMP-9 monomers and trimers purified from human neutrophils were purchased (Cat. No. 444,231 and 444232, Sigma-Aldrich, St. Louis, MO, USA). Examples of sample purities and activations can be found in Supplementary Figure S1. Recombinant human proMMP-2 (CHO cell-derived), proMMP-3 (NS0 cell-derived), proMMP-7 (NS0 cell-derived) and proMMP-8 (NS0 cell-derived) were purchased from R & D systems (Minneapolis, MN, USA), dissolved in assay buffer (150 mM NaCl, 5 mM CaCl2, 0.01% Tween-20, 50 mM Tris, pH 7.4) to a concentration of 100 µg/mL and activated by incubation with 1 mM p-aminophenylmercuric acetate for, respectively, 1h, 6h, 2h and 1h. Activation of MMPs was confirmed by a band shift of approximately 10 kDa, corresponding to the removal of the propeptide domain. MMP-14/MT1-MMP (NS0 cell-derived) was also purchased from R & D systems (Minneapolis, MN, USA) and activated by incubation with recombinant human furin (cat. No. 1503-SE-010, R & D systems, Minneapolis, MO, USA) in activation buffer (50 mM Tris, 1 mM CaCl2, 0.5% Brij-35, pH 9) for 1.5 h and activity was tested in assay buffer (50 mM Tris, 3 mM CaCl2, 1 µM ZnCl2, pH 8.5). Active human neutrophil elastase (NE) was purchased from Abcam (Cambridge, UK) and for activity assays of NE the assay buffer was replaced by 200 mM Tris, pH 8.8. ADAM17/TACE (Sf 21 (baculovirus)-derived, R & D systems, Minneapolis, MO, USA) was diluted and evaluated in 25 mM Tris, 2.5 μM ZnCl2, 0.005% Brij-35, pH 9.0. All stocks of the compounds were evaluated for the presence of endotoxin using the EndoZyme II assay (Hyglos bioMérieux, Bernried am Starnberger See, Germany). Endotoxin levels in all concentrated stocks (2.5 mg/mL) were below the accepted limit of 0.5 EU/mL.
(§1) To determine the inhibition of gelatinolytic activity, we used a previously optimized gelatin degradation assay. Activated MMP-9, activated MMP-2, neutrophil elastase or supernatants of stimulated neutrophils, were incubated with different concentrations of inhibitors and incubated for 30 min at 37 °C. Next, dye-quenched gelatin (DQ™-gelatin, Invitrogen, Carlsbad, CA, USA) was added at a final concentration of 2.5 µg/mL and the increase in fluorescence over time was measured with the CLARIOstar microplate reader (BMG Labtech, Ortenberg, Germany). For other MMPs, the OmniMMP substrate peptide (Mca-PLGL-Dpa-AR-NH2, cat. no. BML-P126-0001, Enzo Life Sciences, Farmingdale, NY, USA) was used at a final concentration of 2.5 µg/mL. For ADAM17 the fluorogenic peptide Mca-PLAQAV-Dpa-RSSSR-NH2 (ES003, R & D systems, Minneapolis, MO, USA) and for neutrophil elastase the fluorogenic substrate MeOSuc-AAPV-AMC (cat. no. 324740, Merck Millipore, Darmstadt, Germany) were used. Proteolytic activity was determined by linear regression of the fluorescence curve and the percentage inhibition was calculated through comparison with the positive control (no inhibitors). When testing supernatants from human neutrophils, the assay was performed in the presence of 20 µM neutrophil elastase inhibitor (Elastase Inhibitor IV, Calbiochem, Darmstadt, Germany).

[2] = system: secretions of fMLF stimulated human granulocytes; experiment: Gelatinolysis in secretions of fMLF stimulated human granulocytes; format: biochemical; conditions: in the presence of 20 µM neutrophil elastase inhibitor; for inhibition of metalloproteinase-derived gelatinolytic signal: highest dose of 100 µM
Description: as §1
Neutrophils were isolated from fresh blood from healthy donors, via density gradient centrifugation as described. To obtain neutrophil degranulate, neutrophils were suspended in degranulation buffer (120 mM NaCl, 15 mM CaCl2, 20 mM Tris/HCl pH 7.5) at a concentration of 10^7 cells/mL and degranulation was induced by incubating neutrophils with N-formyl-methionyl-leucyl-phenylalanine (fMLF) (final concentration 0.5 µM) for 20 min at 37 °C as previously described. Next, the supernatant was collected by centrifugation. For fresh blood donations, all subjects gave written informed consent in accordance with the Declaration of Helsinki.

[3] = system: U-87 cell line; experiment: U-87 cell proliferation (confluence, Incucyte); format: cell-based; conditions: up to a concentration of 20 µM; 17 h
Description: Toxicity of compounds 5 and 7 was evaluated in vitro on the U-87 cell line. Briefly, U-87 cells were seeded in 96-well plates (cat. No. 92096, TPP Techno Plastic Products, Trasadingen, Switzerland) at 2000 cells/well in DMEM FluoroBrite containing 10% FBS and incubated for 24 h. Cells were washed and further grown in DMEM FluoroBrite with 5% KnockOut™ Serum Replacement (Gibco, Waltham, MA, USA). Compounds 5 and 7 were added to the wells in a 1:2 dilution series starting at 20 µM and ending at 0.16 µM. To evaluate the effect of the compound on cell growth, confluence was determined every hour for 17h using the Incucyte® S3 Live-Cell Analysis System (Sartorius, Göttingen, Germany). Next, cells were stained with the LIVE/DEAD™ Viability/Cytotoxicity Kit for mammalian cells (Invitrogen, Carlsbad, CA, USA; cat. # L3224) and cell viability was evaluated. Data were normalized to the mean confluence of wells containing no inhibitors. To measure the stability of the compounds, fresh blood was collected from heathy mice by cardiac puncture with a heparin-coated needle and syringe and 30UI/mL heparin was added. Next, compound 5, compound 7 or vehicle (DMSO) was added to the blood at a final concentration of 500 µM and incubated at 37 °C. […] Background inhibition was subtracted and results were expressed as percentage inhibition.

[4] = target: T2, MMP-8/neutrophil collagenase (Homo sapiens, UniProt P22894); experiment: MMP-8 OmniMMP peptide assay; format: biochemical; conditions: for IC50: OmniMMP substrate peptide
T2 construct: purchased R & D systems; host or cells: NS0 cells
T2 sequence (P22894 101-467): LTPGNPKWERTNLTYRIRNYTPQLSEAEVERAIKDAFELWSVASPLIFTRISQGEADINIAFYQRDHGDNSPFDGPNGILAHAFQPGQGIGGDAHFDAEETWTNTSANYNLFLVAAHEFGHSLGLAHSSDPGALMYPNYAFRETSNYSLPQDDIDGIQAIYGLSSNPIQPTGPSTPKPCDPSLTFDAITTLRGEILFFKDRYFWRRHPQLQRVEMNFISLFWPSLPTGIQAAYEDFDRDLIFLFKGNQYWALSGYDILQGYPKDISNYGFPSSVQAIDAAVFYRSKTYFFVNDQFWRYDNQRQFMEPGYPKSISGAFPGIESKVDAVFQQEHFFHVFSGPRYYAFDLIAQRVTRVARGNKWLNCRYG
Description: Compounds 5 and 7 were synthesized as previously reported. Full-length human proMMP-9 was produced by recombinant expression in Sf9 insect cells and purified by gelatin-Sepharose chromatography as previously described. Stable full-length proMMP-9 monomers and trimers were separated by glycerol gradient ultracentrifugation as previously described. ProMMP-9 mixture and the separated monomers and trimers were activated by incubation with the catalytic domain of MMP-3 (cat. No. 444217, Merck Millipore, Darmstadt, Germany) as previously described. Activation of proMMP-9 was confirmed by a band shift of ±10 kDa, corresponding to the removal of the auto-inhibitory propeptide domain and by detection of gelatinolytic activity with a previously described gelatin degradation assay. MMP-9 monomers and trimers purified from human neutrophils were purchased (Cat. No. 444,231 and 444232, Sigma-Aldrich, St. Louis, MO, USA). Examples of sample purities and activations can be found in Supplementary Figure S1. […] ADAM17/TACE (Sf 21 (baculovirus)-derived, R & D systems, Minneapolis, MO, USA) was diluted and evaluated in 25 mM Tris, 2.5 μM ZnCl2, 0.005% Brij-35, pH 9.0. All stocks of the compounds were evaluated for the presence of endotoxin using the EndoZyme II assay (Hyglos bioMérieux, Bernried am Starnberger See, Germany). […]
To determine the inhibition of gelatinolytic activity, we used a previously optimized gelatin degradation assay. […] Next, dye-quenched gelatin (DQ™-gelatin, Invitrogen, Carlsbad, CA, USA) was added at a final concentration of 2.5 µg/mL and the increase in fluorescence over time was measured with the CLARIOstar microplate reader (BMG Labtech, Ortenberg, Germany). […] Proteolytic activity was determined by linear regression of the fluorescence curve and the percentage inhibition was calculated through comparison with the positive control (no inhibitors). […]

T1 sequence (P14780 107-707 limits assumed): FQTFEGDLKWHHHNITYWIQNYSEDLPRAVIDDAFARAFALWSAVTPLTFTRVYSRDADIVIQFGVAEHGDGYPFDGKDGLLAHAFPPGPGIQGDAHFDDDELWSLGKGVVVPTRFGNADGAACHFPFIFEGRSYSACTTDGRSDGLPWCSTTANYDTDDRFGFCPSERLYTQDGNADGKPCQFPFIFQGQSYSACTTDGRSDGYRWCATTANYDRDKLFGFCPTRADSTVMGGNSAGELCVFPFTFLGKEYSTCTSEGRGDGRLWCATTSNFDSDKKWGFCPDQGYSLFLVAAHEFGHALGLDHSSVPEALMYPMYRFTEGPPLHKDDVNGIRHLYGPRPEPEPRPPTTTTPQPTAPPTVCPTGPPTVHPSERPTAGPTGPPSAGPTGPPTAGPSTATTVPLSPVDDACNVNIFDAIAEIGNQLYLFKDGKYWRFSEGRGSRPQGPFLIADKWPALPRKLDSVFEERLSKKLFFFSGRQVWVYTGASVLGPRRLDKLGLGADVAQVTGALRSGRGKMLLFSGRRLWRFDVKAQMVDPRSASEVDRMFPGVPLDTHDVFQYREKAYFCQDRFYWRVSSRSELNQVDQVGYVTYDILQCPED

| SMILES | IC25 [1] | IC50 [1] | IC75 [1] | fold difference between monomeric and trimeric MMP-9 ([1]; MMP-9 purified from human neutrophils, gelatin substrate) | inhibition of metalloproteinase-derived gelatinolytic signal, first inhibition plateau ([2]; around a concentration of 1 µM) | inhibition of metalloproteinase-derived gelatinolytic signal [2] | effect on proliferation of U-87 cells [3] | IC50 [4] | fold less inhibition of MMP-8 than of trimeric MMP-9 ([4]; peptide substrate) |
| --- | --- | --- | --- | --- | --- | --- | --- | --- | --- |
| CC(C)[C@H](C(=O)O)N(CCNC(=O)c1cccc(C(=O)NCCN([C@@H](C(=O)O)C(C)C)S(=O)(=O)c2ccc(-c3ccccc3)cc2)c1)S(=O)(=O)c1ccc(-c2ccccc2)cc1 [Compound 7] | 0.008 nM | 0.066 nM | 0.6 nM | 650 fold | approximately 30% | almost complete inhibition | did not reduce proliferation | 14.5 nM | more than 100 fold |
| CC(C)[C@H](C(=O)O)N(CCNC(=O)c1ccccc1)S(=O)(=O)c1ccc(-c2ccccc2)cc1 [Compound 5] | 479 nM | 4220 nM | 17212 nM |  |  | approximately 30% | did not reduce proliferation | 331 nM |  |

From PMC7408547, “Bivalent Inhibitor with Selectivity for Trimeric MMP-9 Amplifies Neutrophil Chemotaxis and Enables Functional Studies on MMP-9 Proteoforms” (Cells, 2020)
